Drawing on patent US8883801B2, “Substituted pyrazolo[1,5-a]pyrimidines as mTOR inhibitors” (Merck Sharp & Dohme Corp., priority 2010, dated 2014), this text covers IC50 for three molecules.

The structures appear in SMILES notation.

Experiment [1] has as its system mTORC2 activity: phosphorylated AKT Ser473 (pAKT S473) in PC3 cells. The experiment can be described thus: mTOR target engagement assay, immunofluorescent cell-based, mTORC2 readout. Conditions: Homo sapiens, PC-3, 1.5 h, rated class, 90 min treatment. The gist of the method:
(§1)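 Read-out is immunofluorescence intensity, normalized to DMSO-only wells and fitted to a sigmoidal Hill equation for IC50. The mTORC1 arm probes phospho-4E-BP1 Thr37/46 and the mTORC2 arm phospho-AKT Ser473.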

The next experiment has as its target human mTOR enzyme (Homo sapiens, UniProt P42345). The experiment can be described thus: HTRF mTOR enzyme (kinase) assay. The format is biochemical. Conditions: rated class; 5 μM ATP, 0.2 μM GST-S6K; read-out: hMTOR IC50. For orientation: In TR-FRET formats the signal depends on donor and acceptor labels being close together.
Experiment [2] deals with mTORC1 activity: phosphorylated 4E-BP1 Thr37/46 (p4E-BP1 Thr37/46) in PC3 cells. Description: mTOR target engagement assay, immunofluorescent cell-based, mTORC1 readout. Conditions: Homo sapiens, PC-3, 1.5 h, rated class, 90 min treatment, read-out: P4EBP1 IC50. The gist of the method:
as §1

The term IC50 denotes the concentration needed to halve the response being measured.

Chain of human mTOR enzyme (P42345 1360-2549 limits assumed): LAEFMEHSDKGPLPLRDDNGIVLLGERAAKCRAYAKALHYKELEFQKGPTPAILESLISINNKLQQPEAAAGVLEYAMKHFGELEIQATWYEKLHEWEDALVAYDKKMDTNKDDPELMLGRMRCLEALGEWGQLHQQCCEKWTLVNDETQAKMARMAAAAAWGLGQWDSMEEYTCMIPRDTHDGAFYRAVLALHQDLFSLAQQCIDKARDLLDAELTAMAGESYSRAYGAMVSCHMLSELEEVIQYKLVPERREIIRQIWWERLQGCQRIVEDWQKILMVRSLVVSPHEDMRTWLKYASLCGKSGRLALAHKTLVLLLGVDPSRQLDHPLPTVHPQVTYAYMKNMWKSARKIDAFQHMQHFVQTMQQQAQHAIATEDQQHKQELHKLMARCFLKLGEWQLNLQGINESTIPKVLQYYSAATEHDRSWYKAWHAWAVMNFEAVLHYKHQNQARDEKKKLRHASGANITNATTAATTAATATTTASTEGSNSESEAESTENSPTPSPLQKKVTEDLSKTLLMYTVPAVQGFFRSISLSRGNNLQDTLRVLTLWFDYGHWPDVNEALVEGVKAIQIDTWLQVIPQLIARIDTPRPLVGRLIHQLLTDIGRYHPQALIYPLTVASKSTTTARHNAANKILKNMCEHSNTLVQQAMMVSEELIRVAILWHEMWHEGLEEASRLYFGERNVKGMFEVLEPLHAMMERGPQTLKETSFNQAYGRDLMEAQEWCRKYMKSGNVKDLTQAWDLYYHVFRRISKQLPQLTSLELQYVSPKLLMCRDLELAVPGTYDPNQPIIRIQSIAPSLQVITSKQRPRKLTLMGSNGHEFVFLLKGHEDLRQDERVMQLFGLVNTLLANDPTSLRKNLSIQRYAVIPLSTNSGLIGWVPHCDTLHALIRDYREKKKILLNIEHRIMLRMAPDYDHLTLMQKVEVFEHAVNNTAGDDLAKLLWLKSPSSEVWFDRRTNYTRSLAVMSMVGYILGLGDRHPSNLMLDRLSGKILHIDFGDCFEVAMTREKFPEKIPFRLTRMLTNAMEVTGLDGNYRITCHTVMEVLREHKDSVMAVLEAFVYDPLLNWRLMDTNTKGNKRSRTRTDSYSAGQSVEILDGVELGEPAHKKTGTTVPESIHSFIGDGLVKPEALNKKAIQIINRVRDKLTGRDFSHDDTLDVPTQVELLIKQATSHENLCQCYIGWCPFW

For `CC(=O)c1c(C2CCC(O)(CNS(C)(=O)=O)CC2)nc2c(-c3ccc(-c4ccccc4)nc3)cnn2c1N` (stereo not drawn) [Compound 160, N-((4-(6-acetyl-7-amino-3-(6-phenylpyridin-3-yl)pyrazolo[1,5-a]pyrimidin-5-yl)-1-hydroxycyclohexyl)methyl)methanesulfonamide], the half-inhibitory concentration (IC50) in experiment [1] is 100 to 1000 nM; at human mTOR enzyme, 1 to 100 nM; in experiment [2] it was 100 to 1000 nM.
In the case of `COCCO[C@]1(C(=O)N2CCC(=O)N2)CC[C@@H](c2nc3c(-c4cnn(-c5ccccc5)c4)cnn3c(N)c2S(C)(=O)=O)CC1` [Compound 95, 1-((1R,4R)-4-(7-amino-6-(methylsulfonyl)-3-(1-phenyl-1H-pyrazol-4-yl)pyrazolo[1,5-a]pyrimidin-5-yl)-1-(2-methoxyethoxy)cyclohexanecarbonyl)-pyrazolidin-3-one], the 50% inhibitory concentration (IC50) in experiment [1] fell in the range of 100 to 1000 nM; at human mTOR enzyme, 1 to 100 nM; in experiment [2] it was 100 to 1000 nM.
With `Nc1c(Br)c([C@H]2CC[C@@](O)(CC(=O)O)CC2)nc2c(-c3ccc(-c4ccccc4)nc3)cnn12` [Compound 76, 2-((1R,4R)-4-(7-amino-6-bromo-3-(6-phenylpyridin-3-yl)pyrazolo[1,5-a]pyrimidin-5-yl)-1-hydroxycyclohexyl)acetic acid], the values for the concentration for half-maximal inhibition (IC50) (in experiment [1]; on human mTOR enzyme; in experiment [2]) were 100 to 1000 nM, 1 to 100 nM and 100 to 1000 nM, respectively.
